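Method: 48-hour compound exposure of cells in 96-well plates, five concentrations, linear interpolation of endpoints. GI50 is the concentration that inhibits growth by half. Definition used: TGI = concentration required for complete inhibition of growth.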

Some test systems named below: HL-60(TB) leukemia; IGROV1 ovarian; PC-3 prostate; MDA-MB-435; SK-MEL-2 melanoma; DU-145 prostate; OVCAR-4 ovarian; SF-268 CNS; SF-539 CNS; NCI-H23 lung.
Holding throughout (assay): NCI-60 cell line screen, 48 h

On to `COc1cc2oc(-c3cccc(C(=O)Nc4ccc(C)cc4)c3)cc(=O)c2c(OC)c1OC`, for which the GI50 is 1860 nM in the assay with HL-60(TB) leukemia; 2.99 µM in the assay with IGROV1 ovarian; 3490 nM with PC-3 prostate; 2260 nM with MDA-MB-435; 3.33 µM with SK-MEL-2 melanoma; 3.21 µM in the assay with DU-145 prostate. For the same compound, the GI50 in the assay with OVCAR-4 ovarian was 2 µM; in the assay with SF-268 CNS, 5.61 µM; in the assay with SF-539 CNS, 2580 nM; in the assay with NCI-H23 lung, 4.43 µM. Also, the TGI in the assay on HL-60(TB) leukemia was 4.59 µM; with IGROV1 ovarian, over 100 µM; with PC-3 prostate, over 100 µM; in the assay on MDA-MB-435, 7.64 µM; with SK-MEL-2 melanoma it was 9.55 µM; in the assay on DU-145 prostate, over 100 µM. The TGI is over 100 µM in the assay with OVCAR-4 ovarian, over 100 µM in the assay with SF-268 CNS, 10.5 µM in the assay on SF-539 CNS and 51.4 µM in the assay with NCI-H23 lung.

For the compound `O=C(Nc1cc(C(F)(F)F)cc(C(F)(F)F)c1)Nc1ccc(OCc2nnc(-c3ccc(Cl)cc3)o2)c(F)c1`, the GI50 in the assay on HL-60(TB) leukemia is 2850 nM; in the assay with IGROV1 ovarian, 3.75 µM; with PC-3 prostate, 668 nM; with MDA-MB-435 it was 2600 nM; in the assay on SK-MEL-2 melanoma it was 2.73 µM; with DU-145 prostate it was 3.58 µM. The GI50 in the assay on OVCAR-4 ovarian is 2.31 µM; in the assay on SF-268 CNS, 4.08 µM; in the assay with SF-539 CNS, 2830 nM; in the assay on NCI-H23 lung it was 1.88 µM. Moreover, the TGI in the assay on HL-60(TB) leukemia was 8.21 µM; in the assay with IGROV1 ovarian it was 39.2 µM; in the assay with PC-3 prostate, 11.2 µM; in the assay on MDA-MB-435 it was 9.78 µM; with SK-MEL-2 melanoma it was 6.26 µM; in the assay with DU-145 prostate it was 15.2 µM. For the same compound, the TGI in the assay with OVCAR-4 ovarian amounted to 10 µM; with SF-268 CNS, 21 µM; in the assay with SF-539 CNS, 8.47 µM; with NCI-H23 lung, 6.26 µM.

Turning to `CC(C)c1ccc(/C=N/N=C(N)N)cc1`, the GI50 with HL-60(TB) leukemia was 4360 nM; with IGROV1 ovarian, 11 µM; with PC-3 prostate, 4250 nM; in the assay on MDA-MB-435, 1630 nM; with SK-MEL-2 melanoma, 2.64 µM; with DU-145 prostate, 11.2 µM. Further, the GI50 in the assay on OVCAR-4 ovarian was 10.3 µM; with SF-539 CNS, 11600 nM; in the assay on NCI-H23 lung it was 3.96 µM. Besides, the TGI in the assay on HL-60(TB) leukemia turned out to be 11.3 µM; in the assay with IGROV1 ovarian, 25.8 µM; in the assay on PC-3 prostate it was 18.6 µM; in the assay with MDA-MB-435, 4.72 µM; in the assay with SK-MEL-2 melanoma it was 5.61 µM; in the assay on DU-145 prostate it was 23.8 µM. Moreover, the TGI in the assay on OVCAR-4 ovarian is 23.2 µM; in the assay on SF-268 CNS it was 25.1 µM; in the assay on SF-539 CNS it was 25.3 µM; in the assay with NCI-H23 lung it was 19.7 µM.

Take `COc1ccc(C2CC(c3cccc(OC)c3)=NN2C(=O)c2cc(OC)c(OC)c(OC)c2)cc1` (stereo not drawn): the GI50 in the assay on HL-60(TB) leukemia is 609 nM; in the assay with IGROV1 ovarian, 1.49 µM; with PC-3 prostate, 882 nM; with MDA-MB-435, 307 nM; in the assay on SK-MEL-2 melanoma, 10.3 µM; in the assay on DU-145 prostate, 2.66 µM. In addition, the GI50 in the assay on OVCAR-4 ovarian was 10.8 µM; in the assay with SF-268 CNS, 4.09 µM; with SF-539 CNS it was 1620 nM; in the assay with NCI-H23 lung it was 2.76 µM. The TGI was over 100 µM in the assay with IGROV1 ovarian; over 100 µM in the assay with PC-3 prostate; 1.71 µM with MDA-MB-435; over 100 µM in the assay on SK-MEL-2 melanoma; over 41.6 µM in the assay with DU-145 prostate; over 100 µM in the assay with OVCAR-4 ovarian. Besides, the TGI was over 100 µM in the assay with SF-268 CNS, 5.3 µM in the assay with SF-539 CNS and over 100 µM with NCI-H23 lung.

The values are drawn from PubChem BioAssay (NCI).
